Source: the supplement of paper PMC10307832

Legend:
Experiment in all cases: relative viability (nuclei count vs DMSO), 5 days (fraction); higher = more cells survive
[1] = compound: CN(C)C[C@@H]1CCn2cc(c3ccccc32)C2=C(C(=O)NC2=O)c2cn(c3ccccc23)CCO1 [Ruboxistaurin] + CS(=O)(=O)N1CCN(Cc2cc3nc(-c4cccc5[nH]ncc45)nc(N4CCOCC4)c3s2)CC1 [Pictilisib] (partner 1 µM)
Procedure, shortened: (§1)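 One day after seeding in 1536-well plates, lung cancer cell lines were dosed by pin tool. Dosing was either single-drug or a fixed anchor-drug dose plus five library-drug doses (not always all listed) in √10 steps. After 5 days, nuclei were stained in one fix-and-stain step and counted on 4× images, and relative viability is the nuclei count of treated wells over that of vehicle wells, given as the median of duplicate plates.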

[2] = compound: CN(C)C[C@@H]1CCn2cc(c3ccccc32)C2=C(C(=O)NC2=O)c2cn(c3ccccc23)CCO1 [Ruboxistaurin] + CS(=O)(=O)CCNCc1ccc(-c2ccc3ncnc(Nc4ccc(OCc5cccc(F)c5)c(Cl)c4)c3c2)o1 [Lapatinib] (partner 2 µM)
Procedure, shortened: as §1

[3] = compound: CN(C)C[C@@H]1CCn2cc(c3ccccc32)C2=C(C(=O)NC2=O)c2cn(c3ccccc23)CCO1 [Ruboxistaurin] + COc1cc2c(Oc3ccc(NC(=O)C4(C(=O)Nc5ccc(F)cc5)CC4)cc3F)ccnc2cc1OCCCN1CCOCC1 [Foretinib] (partner 0.25 µM)
Procedure, shortened: as §1

[4] = compound: CN(C)C[C@@H]1CCn2cc(c3ccccc32)C2=C(C(=O)NC2=O)c2cn(c3ccccc23)CCO1 [Ruboxistaurin] + CC(C)C[C@H](NC(=O)[C@H](Cc1ccccc1)NC(=O)c1cnccn1)B(O)O [Bortezomib] (partner 0.002 µM)
Procedure, shortened: as §1

[5] = compound: CN(C)C[C@@H]1CCn2cc(c3ccccc32)C2=C(C(=O)NC2=O)c2cn(c3ccccc23)CCO1 [Ruboxistaurin] + C[C@]1(O)C[C@@H](c2nc(-c3ccc4ccc(-c5ccccc5)nc4c3)c3c(N)nccn32)C1 [Linsitinib] (partner 1 µM)
Procedure, shortened: as §1

Ruboxistaurin + Olaparib = compound: CN(C)C[C@@H]1CCn2cc(c3ccccc32)C2=C(C(=O)NC2=O)c2cn(c3ccccc23)CCO1 [Ruboxistaurin] + O=C(c1cc(Cc2n[nH]c(=O)c3ccccc23)ccc1F)N1CCN(C(=O)C2CC2)CC1 [Olaparib] (partner 8 µM)
Procedure, shortened: as §1

[6] = compound: CN(C)C[C@@H]1CCn2cc(c3ccccc32)C2=C(C(=O)NC2=O)c2cn(c3ccccc23)CCO1 [Ruboxistaurin] + CC1(C)CCC(c2ccc(Cl)cc2)=C(CN2CCN(c3ccc(C(=O)NS(=O)(=O)c4ccc(N[C@H](CCN5CCOCC5)CSc5ccccc5)c(S(=O)(=O)C(F)(F)F)c4)cc3)CC2)C1 [Navitoclax] (partner 0.5 µM)
Procedure, shortened: as §1

[7] = compound: CN(C)C[C@@H]1CCn2cc(c3ccccc32)C2=C(C(=O)NC2=O)c2cn(c3ccccc23)CCO1 [Ruboxistaurin] + Cc1nc(NC(=O)N2CCC[C@H]2C(N)=O)sc1-c1ccnc(C(C)(C)C(F)(F)F)c1 [Alpelisib] (partner 2 µM)
Procedure, shortened: as §1

[8] = compound: CN(C)C[C@@H]1CCn2cc(c3ccccc32)C2=C(C(=O)NC2=O)c2cn(c3ccccc23)CCO1 [Ruboxistaurin] + C[C@@H](Oc1cc(-c2cnn(C3CCNCC3)c2)cnc1N)c1c(Cl)ccc(F)c1Cl [Crizotinib] (partner 1 µM)
Procedure, shortened: as §1

Ruboxistaurin = compound: CN(C)C[C@@H]1CCn2cc(c3ccccc32)C2=C(C(=O)NC2=O)c2cn(c3ccccc23)CCO1 [Ruboxistaurin]
Procedure, shortened: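 Following overnight incubation at 37 °C, lung cancer cell lines in 1536-well plates were pinned with five library-drug doses (not always all listed) in √10 steps on vehicle-anchored plates. The cells then spent 5 days without medium change before a combined fix, permeabilisation and Hoechst stain, 4× imaging and MetaXpress nuclear counts. Viability is the treated-to-vehicle ratio of nuclei, taken as the median across plates. Only plates with control CV below 25% and at least one doubling passed.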

[9] = compound: CN(C)C[C@@H]1CCn2cc(c3ccccc32)C2=C(C(=O)NC2=O)c2cn(c3ccccc23)CCO1 [Ruboxistaurin] + CCNC(=O)c1noc(-c2cc(C(C)C)c(O)cc2O)c1-c1ccc(CN2CCOCC2)cc1 [Luminespib] (partner 0.01 µM)
Procedure, shortened: as §1

Ruboxistaurin + OSI-027 = compound: CN(C)C[C@@H]1CCn2cc(c3ccccc32)C2=C(C(=O)NC2=O)c2cn(c3ccccc23)CCO1 [Ruboxistaurin] + COc1cccc2cc(-c3nc([C@H]4CC[C@H](C(=O)O)CC4)n4ncnc(N)c34)[nH]c12 [OSI-027] (partner 0.5 µM)
Procedure, shortened: as §1

[10] = compound: CN(C)C[C@@H]1CCn2cc(c3ccccc32)C2=C(C(=O)NC2=O)c2cn(c3ccccc23)CCO1 [Ruboxistaurin] + Cc1nc(Nc2ncc(C(=O)Nc3c(C)cccc3Cl)s2)cc(N2CCN(CCO)CC2)n1 [Dasatinib] (partner 0.075 µM)
Procedure, shortened: as §1

[11] = compound: CN(C)C[C@@H]1CCn2cc(c3ccccc32)C2=C(C(=O)NC2=O)c2cn(c3ccccc23)CCO1 [Ruboxistaurin] + N=C(N)NC(=N)NCCc1ccccc1 [Phenformin] (partner 250 µM)
Procedure, shortened: as §1

[12] = compound: CN(C)C[C@@H]1CCn2cc(c3ccccc32)C2=C(C(=O)NC2=O)c2cn(c3ccccc23)CCO1 [Ruboxistaurin] + Cc1cc(Nc2cc(N3CCN(C)CC3)nc(Sc3ccc(NC(=O)C4CC4)cc3)n2)n[nH]1 [Tozasertib] (partner 0.1 µM)
Procedure, shortened: as §1

## NCI-H1299
[1]; first compound 0.08 µM
  relative viability: 0.841
[1]; first compound 0.8 µM
  relative viability: 0.51
[1]; first compound 2.53 µM
  relative viability: 0.731
[1]; first compound 8 µM
  relative viability: 0.45
[2]; first compound 0.08 µM
  relative viability: 0.997
[2]; first compound 0.8 µM
  relative viability: 0.931
[2]; first compound 2.53 µM
  relative viability: 0.993
[2]; first compound 8 µM
  relative viability: 0.962
[3]; first compound 0.08 µM
  relative viability: 1.11
[3]; first compound 0.8 µM
  relative viability: 1.11
[3]; first compound 2.53 µM
  relative viability: 1.16
[3]; first compound 8 µM
  relative viability: 1.21
[4]; first compound 0.08 µM
  relative viability: 1.05
[4]; first compound 0.8 µM
  relative viability: 1.02
[4]; first compound 2.53 µM
  relative viability: 1.05
[4]; first compound 8 µM
  relative viability: 1.08
[5]; first compound 0.08 µM
  relative viability: 1.03
[5]; first compound 0.8 µM
  relative viability: 0.921
[5]; first compound 2.53 µM
  relative viability: 0.951
[5]; first compound 8 µM
  relative viability: 1.15
Ruboxistaurin + Olaparib; first compound 0.08 µM
  relative viability: 0.95
Ruboxistaurin + Olaparib; first compound 0.8 µM
  relative viability: 1.02
Ruboxistaurin + Olaparib; first compound 2.53 µM
  relative viability: 0.976
Ruboxistaurin + Olaparib; first compound 8 µM
  relative viability: 1.08
[6]; first compound 0.08 µM
  relative viability: 1.08
[6]; first compound 0.8 µM
  relative viability: 1.01
[6]; first compound 2.53 µM
  relative viability: 1.07
[6]; first compound 8 µM
  relative viability: 1.06
[7]; first compound 0.08 µM
  relative viability: 1.08
[7]; first compound 0.8 µM
  relative viability: 1.07
[7]; first compound 2.53 µM
  relative viability: 1.07
[7]; first compound 8 µM
  relative viability: 1.16
[8]; first compound 0.08 µM
  relative viability: 0.921
[8]; first compound 0.8 µM
  relative viability: 0.978
[8]; first compound 2.53 µM
  relative viability: 0.99
[8]; first compound 8 µM
  relative viability: 1.02
Ruboxistaurin; 0.08 µM
  relative viability: 1.06
Ruboxistaurin; 0.8 µM
  relative viability: 1
Ruboxistaurin; 2.53 µM
  relative viability: 1.01
Ruboxistaurin; 8 µM
  relative viability: 1.09

## Calu-6
[1]; first compound 0.08 µM
  relative viability: 0.94
[1]; first compound 0.8 µM
  relative viability: 0.848
[1]; first compound 2.53 µM
  relative viability: 0.795
[1]; first compound 8 µM
  relative viability: 0.607
[2]; first compound 0.08 µM
  relative viability: 1.15
[2]; first compound 0.8 µM
  relative viability: 1.02
[2]; first compound 2.53 µM
  relative viability: 1.08
[2]; first compound 8 µM
  relative viability: 0.933
[3]; first compound 0.08 µM
  relative viability: 0.949
[3]; first compound 0.8 µM
  relative viability: 0.848
[3]; first compound 2.53 µM
  relative viability: 0.93
[3]; first compound 8 µM
  relative viability: 0.893
[4]; first compound 0.08 µM
  relative viability: 1.12
[4]; first compound 0.8 µM
  relative viability: 0.948
[4]; first compound 2.53 µM
  relative viability: 1.1
[4]; first compound 8 µM
  relative viability: 1.17
[5]; first compound 0.08 µM
  relative viability: 0.978
[5]; first compound 0.8 µM
  relative viability: 0.804
[5]; first compound 2.53 µM
  relative viability: 0.913
[5]; first compound 8 µM
  relative viability: 0.942
Ruboxistaurin + Olaparib; first compound 0.08 µM
  relative viability: 0.635
Ruboxistaurin + Olaparib; first compound 0.8 µM
  relative viability: 0.564
Ruboxistaurin + Olaparib; first compound 2.53 µM
  relative viability: 0.669
Ruboxistaurin + Olaparib; first compound 8 µM
  relative viability: 0.585
[6]; first compound 0.08 µM
  relative viability: 0.967
[6]; first compound 0.8 µM
  relative viability: 0.776
[6]; first compound 2.53 µM
  relative viability: 0.862
[6]; first compound 8 µM
  relative viability: 1.01
[7]; first compound 0.08 µM
  relative viability: 0.95
[7]; first compound 0.8 µM
  relative viability: 0.897
[7]; first compound 2.53 µM
  relative viability: 0.981
[7]; first compound 8 µM
  relative viability: 0.809
[8]; first compound 0.08 µM
  relative viability: 0.899
[8]; first compound 0.8 µM
  relative viability: 0.697
[8]; first compound 2.53 µM
  relative viability: 0.807
[8]; first compound 8 µM
  relative viability: 0.822
Ruboxistaurin; 0.08 µM
  relative viability: 1.07
Ruboxistaurin; 0.8 µM
  relative viability: 0.951
Ruboxistaurin; 2.53 µM
  relative viability: 1.06
Ruboxistaurin; 8 µM
  relative viability: 0.982

## NCI-H1623
[9]; first compound 0.08 µM
  relative viability: 0.595
[9]; first compound 0.8 µM
  relative viability: 0.391
[9]; first compound 2.53 µM
  relative viability: 0.639
[9]; first compound 8 µM
  relative viability: 0.401
Ruboxistaurin + OSI-027; first compound 0.08 µM
  relative viability: 0.341
Ruboxistaurin + OSI-027; first compound 0.8 µM
  relative viability: 0.416
Ruboxistaurin + OSI-027; first compound 2.53 µM
  relative viability: 0.423
Ruboxistaurin + OSI-027; first compound 8 µM
  relative viability: 0.374
[10]; first compound 0.08 µM
  relative viability: 0.505
[10]; first compound 0.8 µM
  relative viability: 0.5
[10]; first compound 2.53 µM
  relative viability: 0.525
[10]; first compound 8 µM
  relative viability: 0.531
[3]; first compound 0.08 µM
  relative viability: 0.895
[3]; first compound 0.8 µM
  relative viability: 0.747
[3]; first compound 2.53 µM
  relative viability: 0.933
[3]; first compound 8 µM
  relative viability: 0.837
[11]; first compound 0.08 µM
  relative viability: 0.632
[11]; first compound 0.8 µM
  relative viability: 0.58
[11]; first compound 2.53 µM
  relative viability: 0.693
[11]; first compound 8 µM
  relative viability: 0.563
[12]; first compound 0.08 µM
  relative viability: 0.429
[12]; first compound 0.8 µM
  relative viability: 0.405
[12]; first compound 2.53 µM
  relative viability: 0.459
[12]; first compound 8 µM
  relative viability: 0.436
Ruboxistaurin; 0.08 µM
  relative viability: 1.03
Ruboxistaurin; 0.8 µM
  relative viability: 0.922
Ruboxistaurin; 2.53 µM
  relative viability: 1.01
Ruboxistaurin; 8 µM
  relative viability: 0.977
